The values that follow come from ChEMBL document CHEMBL1201862, “PubChem BioAssay data set” (2004).

Some test systems named below: UACC-62; SK-MEL-5; 786-0; A549; OVCAR-4; HL-60; SF-268; SNB-78; IGROV-1; OVCAR-5; SK-MEL-2; LOX IMVI; CAKI-1; NCI/ADR-RES; PC-3; MDA-N; MDA-MB-231; T47D; BT-549; DU-145.
Holding throughout (experiment): inhibition of tumour cell growth, NCI panel, 48 h

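Values below derive from 48-hour exposures of cells grown in 96-well plates, with endpoints linearly interpolated between the two concentrations bracketing the appropriate inhibition level. GI50 is the concentration that inhibits growth by half.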 Activity calls are given as the source filed them. Rule as the data show it: active = GI50 up to about 1.1 µM and inactive = higher.

With `C/C(=N\NS(=O)(=O)c1ccc(C)cc1)C(CN1CCOCC1)C(c1ccccc1)c1c(O)c2ccccc2oc1=O` (stereo not drawn), the GI50 in the test with UACC-62 is > 100 µM (inactive); with SK-MEL-5, > 100 µM (inactive); in the test with 786-0, > 100 µM (inactive); in the test on A549, > 100 µM (inactive); in the test with OVCAR-4, > 100 µM (inactive); in the test on HL-60, 30.8 µM (inactive). Besides, the GI50 in the test on SF-268, with SNB-78, in the test on IGROV-1, with OVCAR-5, in the test on SK-MEL-2 and with LOX IMVI was > 100 µM (inactive) each time. Moreover, the GI50 with CAKI-1 is > 100 µM (inactive).

For `C/C(=N\NC(N)=O)C(CN1CCCCC1)C(c1ccccc1)c1c(O)c2ccccc2oc1=O` (stereo not drawn), the GI50 in the test with UACC-62 is > 100 µM (inactive); in the test with SK-MEL-5, > 100 µM (inactive); with 786-0 it was 0.6 µM (active); in the test with A549, > 100 µM (inactive); with OVCAR-4, > 100 µM (inactive); in the test with HL-60 it was > 100 µM (inactive). Further, the GI50 with SF-268, in the test on SNB-78, in the test on IGROV-1, with OVCAR-5, in the test on SK-MEL-2 and with LOX IMVI was > 100 µM (inactive) in each case. Moreover, the GI50 in the test with CAKI-1 was > 100 µM (inactive).

With `Cn1c(=O)c2[nH]cnc2n(CC(N)=O)c1=O`, the GI50 in the test with UACC-62, in the test on SK-MEL-5, with 786-0, in the test on A549, in the test on SF-268 and in the test on SNB-78 was > 100 µM (inactive) throughout. The GI50 in the test on IGROV-1, in the test with SK-MEL-2 and in the test on CAKI-1 was > 100 µM (inactive) in each case.

As for `COc1cccc(-c2cc(C(=O)Nc3ccc(Cl)cc3)nc(N)n2)c1`, the GI50 was 42.6 µM (inactive) with UACC-62; 55.6 µM (inactive) with SK-MEL-5; 55 µM (inactive) in the test on 786-0; 64.7 µM (inactive) in the test with A549; > 100 µM (inactive) with OVCAR-4; 32.7 µM (inactive) with HL-60. In addition, the GI50 in the test with SF-268 is 65.2 µM (inactive); in the test with SNB-78, > 100 µM (inactive); with IGROV-1, 50.7 µM (inactive); in the test with OVCAR-5, > 100 µM (inactive); in the test with SK-MEL-2 it was > 100 µM (inactive); in the test on LOX IMVI it was 66.1 µM (inactive). Further, in the test with CAKI-1, the GI50 is > 100 µM (inactive).

Turning to `CC1NOC(=O)C1/N=N/c1ccc(Cl)cc1Cl` (stereo not drawn), the GI50 is 30.7 µM (inactive) in the test with UACC-62; 25.8 µM (inactive) in the test with SK-MEL-5; 18.7 µM (inactive) in the test with 786-0; 23 µM (inactive) with A549; 21.6 µM (inactive) in the test on OVCAR-4; 16 µM (inactive) with HL-60. Moreover, the GI50 was 32.2 µM (inactive) with SF-268; 26.3 µM (inactive) in the test on SNB-78; 26.9 µM (inactive) with IGROV-1; 69.7 µM (inactive) in the test with OVCAR-5; 23.8 µM (inactive) in the test with SK-MEL-2; 27.2 µM (inactive) in the test on LOX IMVI. Further, in the test on CAKI-1, the GI50 is 24.4 µM (inactive).

With `Clc1ccc(-n2nnc(C3=NCCCN3)c2-c2ccccc2)cc1`, the GI50 in the test on UACC-62 was > 100 µM (inactive); in the test with SK-MEL-5, 75.2 µM (inactive); in the test on 786-0 it was > 100 µM (inactive); in the test with A549 it was > 100 µM (inactive); with OVCAR-4, > 100 µM (inactive); with HL-60, > 100 µM (inactive). Moreover, the GI50 in the test with SF-268, with SNB-78, in the test on IGROV-1, in the test on OVCAR-5, in the test with SK-MEL-2 and in the test with LOX IMVI was > 100 µM (inactive) in each case. The GI50 in the test on CAKI-1 was > 100 µM (inactive).

`CCN(CC)CC(C(=O)Nc1c(C)cccc1C)/C(C)=N\NC(=O)C[N+](C)(C)C` (stereo not drawn): the GI50 in the test on UACC-62, in the test on SK-MEL-5, in the test with 786-0, with A549, in the test with OVCAR-4 and in the test on HL-60 was > 100 µM (inactive) each time. The GI50 in the test with SF-268, in the test on SNB-78, in the test with IGROV-1, with OVCAR-5, in the test on LOX IMVI and with CAKI-1 was > 100 µM (inactive) each time.

Turning to `COC(=O)c1c/c(=N\NC(=O)CC(=O)Nc2ccc(C)cc2)c2ccccc2o1`, the GI50 in the test on UACC-62, in the test on SK-MEL-5, in the test on 786-0, in the test on A549, with OVCAR-4 and in the test on HL-60 was > 100 µM (inactive) throughout. The GI50 with SF-268, in the test on SNB-78, with IGROV-1, in the test on OVCAR-5, in the test with SK-MEL-2 and in the test with LOX IMVI was > 100 µM (inactive) throughout. Further, in the test with CAKI-1, the GI50 is > 100 µM (inactive).

With `CCOC(=O)C1S/C(=N\c2ccc(Cl)cc2)N=C1C` (stereo not drawn), the GI50 with 786-0 was 16.9 µM (inactive); in the test on A549, 17.8 µM (inactive); with OVCAR-4, 24.7 µM (inactive); in the test on HL-60, 23 µM (inactive); with SF-268 it was 17 µM (inactive); in the test on SNB-78 it was 29.2 µM (inactive). The GI50 in the test with IGROV-1 was 19.5 µM (inactive); with OVCAR-5, 22.1 µM (inactive); in the test with SK-MEL-2, 22.6 µM (inactive); with LOX IMVI it was 18.6 µM (inactive).

As to `Nn1c(S)nnc1NNC(=O)C(=O)Nc1cc(Cl)c(Cl)cc1Cl`, the GI50 with UACC-62, in the test on SK-MEL-5, with 786-0, in the test with A549, with OVCAR-4 and with SF-268 was > 100 µM (inactive) in each case. Further, the GI50 with SNB-78, in the test with IGROV-1, in the test on OVCAR-5, with LOX IMVI and in the test with CAKI-1 was > 100 µM (inactive) throughout.

Take `COc1ccc2c(CCNS(=O)(=O)c3ccccc3)c(C(C)=O)[nH]c2c1[N+](=O)[O-]`: the GI50 with UACC-62 was 48.5 µM (inactive); in the test on 786-0 it was 77.8 µM (inactive); in the test with A549 it was > 100 µM (inactive); in the test on OVCAR-4 it was 28.4 µM (inactive); in the test with HL-60, > 100 µM (inactive); in the test with SF-268, 53.3 µM (inactive). Further, the GI50 with SNB-78 is 48.5 µM (inactive); in the test with IGROV-1 it was > 100 µM (inactive); in the test with OVCAR-5, > 100 µM (inactive); with SK-MEL-2, > 100 µM (inactive); in the test with LOX IMVI, > 100 µM (inactive); with CAKI-1, > 10 µM (inactive).

For `COc1ccc(-c2cc(-c3ccccc3)c(C#N)c(=O)[nH]2)cc1`, the GI50 with UACC-62, in the test on SK-MEL-5, with 786-0, in the test with A549, in the test on OVCAR-4 and in the test on HL-60 was > 100 µM (inactive) throughout. Besides, the GI50 in the test on SF-268, with SNB-78, with IGROV-1, in the test with OVCAR-5 and in the test with LOX IMVI was > 100 µM (inactive) throughout.

As for `COc1ccc(-c2cc(Cc3cccs3)c(=O)[nH]n2)cc1`, the GI50 with UACC-62 was 56.9 µM (inactive); with SK-MEL-5 it was 19 µM (inactive); in the test with 786-0 it was > 100 µM (inactive); in the test on A549, 57 µM (inactive); in the test with SF-268, > 100 µM (inactive); with SNB-78, > 100 µM (inactive). For the same compound, the GI50 with IGROV-1, with OVCAR-5 and with SK-MEL-2 was > 100 µM (inactive) in each case.

For the compound `COC(=O)c1ccc(OCc2ccc3oc(=O)c(-c4ccccc4)nc3c2)cc1`, the GI50 is > 100 µM (inactive) with SK-MEL-5; 28.9 µM (inactive) in the test with 786-0; > 100 µM (inactive) in the test on A549; > 100 µM (inactive) in the test on OVCAR-4; 28.4 µM (inactive) in the test with HL-60; > 100 µM (inactive) with SF-268. Moreover, the GI50 with SNB-78, with OVCAR-5, in the test on SK-MEL-2, in the test on LOX IMVI and with CAKI-1 was > 100 µM (inactive) each time.

For the compound `O=C(NCCC(F)(F)C(F)(F)C(F)(F)C(F)(F)F)NC1OC(CO)C(O)C(O)C1O` (stereo not drawn), the GI50 with NCI/ADR-RES, in the test with UACC-62, in the test on SK-MEL-5, in the test on 786-0, with A549 and with OVCAR-4 was > 100 µM (inactive) throughout. Also, the GI50 in the test on HL-60, in the test on PC-3, with SF-268, with MDA-N, in the test with MDA-MB-231 and in the test with T47D was > 100 µM (inactive) each time. Besides, the GI50 in the test on IGROV-1, in the test with BT-549, in the test on OVCAR-5, with SK-MEL-2, in the test with LOX IMVI and in the test with DU-145 was > 100 µM (inactive) in each case. The GI50 in the test with CAKI-1 was > 100 µM (inactive).

For the compound `[N-]=[N+]=CC(=O)C1(C(=O)C=[N+]=[N-])CC1`, the GI50 in the test with SK-MEL-5, with 786-0, in the test on A549, in the test with OVCAR-4, with HL-60 and in the test on SF-268 was > 100 µM (inactive) throughout. The GI50 with SNB-78, with IGROV-1, in the test on OVCAR-5, in the test with SK-MEL-2 and in the test on LOX IMVI was > 100 µM (inactive) in each case.
